Measured values reported in ChEMBL document CHEMBL1156232, “Non-classical antifolates. Part 2: synthesis, biological evaluation, and molecular modeling study of some new 2,6-substituted-quinazolin-4-ones” (Bioorg Med Chem, 2010).
Values after ≈ are worked out from the molar mass of the structure shown. Active and inactive are the calls of the source. The rule behind the calls is not given here.

What was measured:
[1] = test system: Pseudomonas aeruginosa; experiment: Antibacterial activity against Pseudomonas aeruginosa at 200 ug/disk after 24 hrs by disk diffusion method; assay type: functional; settings: for zone of inhibition at 200 µg/disc: read-out: DIZ
[2] = test system: Candida albicans; experiment: Antifungal activity against Candida albicans after 48 hrs by microdilution susceptibility method; assay type: functional, organism-based
[3] = test system: Escherichia coli; experiment: Antibacterial activity against Escherichia coli after 24 hrs by microdilution susceptibility method; assay type: functional
[4] = test system: Candida albicans; experiment: Antifungal activity against Candida albicans at 200 ug/disk after 48 hrs by disk diffusion method; assay type: functional, organism-based
[5] = molecular target: T1, Dihydrofolate reductase (Bos taurus, UniProt P00376)
T1 sequence (P00376 whole entry): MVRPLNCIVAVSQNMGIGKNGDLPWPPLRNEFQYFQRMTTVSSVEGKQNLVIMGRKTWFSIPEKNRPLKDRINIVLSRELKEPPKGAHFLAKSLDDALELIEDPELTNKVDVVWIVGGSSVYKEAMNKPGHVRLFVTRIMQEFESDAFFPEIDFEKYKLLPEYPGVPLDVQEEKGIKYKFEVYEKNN
Description: Inhibition of bovine DHFR after 2 mins

[6] = test system: Escherichia coli; experiment: Antibacterial activity against Escherichia coli at 200 ug/disk after 24 hrs by disk diffusion method; assay type: functional; settings: for zone of inhibition at 200 µg/disc: read-out: DIZ
[7] = test system: Staphylococcus aureus; experiment: Antibacterial activity against Staphylococcus aureus after 24 hrs by microdilution susceptibility method; assay type: functional
[8] = test system: Staphylococcus aureus; experiment: Antibacterial activity against Staphylococcus aureus at 200 ug/disk after 24 hrs by disk diffusion method; assay type: functional; settings: for zone of inhibition at 200 µg/disc: read-out: DIZ
[9] = test system: Bacillus subtilis; experiment: Antibacterial activity against Bacillus subtilis at 200 ug/disk after 24 hrs by disk diffusion method; assay type: functional; settings: for zone of inhibition at 200 µg/disc: read-out: DIZ
[10] = test system: Micrococcus luteus; experiment: Antibacterial activity against Micrococcus luteus after 24 hrs by microdilution susceptibility method; assay type: functional
[11] = test system: Bacillus subtilis; experiment: Antibacterial activity against Bacillus subtilis after 24 hrs by microdilution susceptibility method; assay type: functional
[12] = test system: Micrococcus luteus; experiment: Antibacterial activity against Micrococcus luteus at 200 ug/disk after 24 hrs by disk diffusion method; assay type: functional; settings: for zone of inhibition at 200 µg/disc: Micrococcus luteus, 24 h, read-out: DIZ
[13] = Antitumor activity against human CNS cancer cells after 48 hrs by SRB assay; assay type: functional; settings: Cancer cell lines
[14] = Antitumor activity against human ovarian cancer cells after 48 hrs by SRB assay; assay type: functional; settings: Cancer cell lines
[15] = Antitumor activity against human melanoma cells after 48 hrs by SRB assay; assay type: functional; settings: Melanoma cell
[16] = Antitumor activity against human prostate cancer cells after 48 hrs by SRB assay; assay type: functional; settings: Cancer cell lines
[17] = Antitumor activity against human leukemia cells after 48 hrs by SRB assay; assay type: functional; settings: Leukemia cell
[18] = test system: MDA-MB-468; experiment: Antitumor activity against human MDA-MB-468 cells after 48 hrs by SRB assay; assay type: functional; settings: MDA-MB-468, 48 h
[19] = Antitumor activity against human non small cell lung cancer cells after 48 hrs by SRB assay; assay type: functional; settings: Cancer cell lines
[20] = molecular target: T2, Dihydrofolate reductase (Homo sapiens, UniProt P00374)
T2 sequence (P00374 whole entry): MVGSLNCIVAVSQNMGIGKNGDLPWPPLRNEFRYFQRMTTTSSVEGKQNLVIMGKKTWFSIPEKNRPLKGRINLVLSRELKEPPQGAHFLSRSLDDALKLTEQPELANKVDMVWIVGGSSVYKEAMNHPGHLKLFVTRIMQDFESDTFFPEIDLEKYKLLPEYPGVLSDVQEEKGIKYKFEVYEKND
Description: Inhibition of human DHFR after 2 mins

[21] = Antitumor activity against human breast cancer cells after 48 hrs by SRB assay; assay type: functional; settings: Cancer cell lines
[22] = Antitumor activity against human renal cancer cells after 48 hrs by SRB assay; assay type: functional; settings: Cancer cell lines
[23] = Antitumor activity against human colon cancer cells after 48 hrs by SRB assay; assay type: functional; settings: Cancer cell lines
[24] = test system: Pseudomonas aeruginosa; experiment: Antibacterial activity against Pseudomonas aeruginosa after 24 hrs by microdilution susceptibility method; assay type: functional
[25] = test system: Staphylococcus aureus; experiment: Antibacterial activity against Staphylococcus aureus at 100 ug/disk after 24 hrs by disk diffusion method; assay type: functional
[26] = test system: Bacillus subtilis; experiment: Antibacterial activity against Bacillus subtilis at 100 ug/disk after 24 hrs by disk diffusion method; assay type: functional
[27] = test system: OVCAR-4; experiment: Antitumor activity against human OVCAR4 cells after 48 hrs by SRB assay; assay type: functional; settings: OVCAR-4, 48 h
[28] = test system: HT-29; experiment: Antitumor activity against human HT-29 cells after 48 hrs by SRB assay; assay type: functional; settings: HT-29, 48 h

Nc1ccc2ncn(Cc3ccccc3)c(=O)c2c1
diameter of the inhibition zone (DIZ) [1]: inactive
Activity [2]: inactive
MIC [3]: 4 µg/mL (≈ 15.9 µM)
Activity [4]: inactive
IC50 [5]: 40 µM
zone of inhibition at 200 µg/disc [6]: 22 mm
MIC [7]: 2 µg/mL (≈ 7.96 µM)
zone of inhibition at 200 µg/disc [8]: 24 mm
zone of inhibition at 200 µg/disc [9]: 28 mm
MIC [10]: 4 µg/mL (≈ 15.9 µM)
MIC [11]: 2 µg/mL (≈ 7.96 µM)
zone of inhibition at 200 µg/disc [12]: 20 mm

CSc1nc2ccc(NC(=O)/C=C/c3ccccc3)cc2c(=O)n1Cc1ccccc1
diameter of the inhibition zone (DIZ) [1]: inactive
Activity [2]: inactive
GI50 [13]: 1900 nM
TGI [13]: 68.4 µM
Activity [4]: inactive
IC50 [5]: 0.6 µM
diameter of the inhibition zone (DIZ) [6]: inactive
GI50 [14]: 1.1 µM
TGI [14]: > 100 µM
GI50 [15]: 2400 nM
TGI [15]: 26.9 µM
GI50 [16]: 1.6 µM
TGI [16]: > 100 µM
GI50 [17]: 51.6 µM
TGI [17]: > 100 µM
GI50 [18]: 2200 nM
GI50 [19]: 1700 nM
TGI [19]: 80.9 µM
IC50 [20]: 1000 nM
GI50 [21]: 3000 nM
TGI [21]: > 100 µM
GI50 [22]: 2900 nM
TGI [22]: > 100 µM
diameter of the inhibition zone (DIZ) [8]: inactive
diameter of the inhibition zone (DIZ) [9]: inactive
GI50 [23]: 34.5 µM
TGI [23]: > 100 µM
diameter of the inhibition zone (DIZ) [12]: inactive

O=c1c2cc([N+](=O)[O-])ccc2nc(SC/C=C/c2ccccc2)n1Cc1ccccc1
zone of inhibition at 200 µg/disc [1]: 17 mm
Activity [2]: inactive
MIC [24]: 16 µg/mL (≈ 37.3 µM)
Activity [4]: inactive
IC50 [5]: 5 µM
zone of inhibition at 200 µg/disc [6]: 21 mm
IC50 [20]: 3000 nM
diameter of the inhibition zone (DIZ) [8]: inactive
diameter of the inhibition zone (DIZ) [9]: inactive
diameter of the inhibition zone (DIZ) [12]: inactive

CSc1nc2ccc(N(C/C=C/c3ccccc3)C/C=C/c3ccccc3)cc2c(=O)n1Cc1ccccc1
diameter of the inhibition zone (DIZ) [1]: inactive
Activity [2]: inactive
MIC [3]: 16 µg/mL (≈ 30.2 µM)
Activity [4]: inactive
IC50 [5]: 0.6 µM
zone of inhibition at 200 µg/disc [6]: 16 mm
IC50 [20]: 800 nM
diameter of the inhibition zone (DIZ) [8]: inactive
zone of inhibition at 200 µg/disc [9]: 18 mm
MIC [11]: 8 µg/mL (≈ 15.1 µM)
diameter of the inhibition zone (DIZ) [12]: inactive

C=CCSc1nc2ccc(N(C/C=C/c3ccccc3)C/C=C/c3ccccc3)cc2c(=O)n1Cc1ccccc1
diameter of the inhibition zone (DIZ) [1]: inactive
Activity [2]: inactive
MIC [3]: 16 µg/mL (≈ 28.8 µM)
Activity [4]: inactive
IC50 [5]: 0.5 µM
zone of inhibition at 200 µg/disc [6]: 16 mm
MIC [7]: 4 µg/mL (≈ 7.2 µM)
IC50 [20]: 700 nM
zone of inhibition at 200 µg/disc [8]: 22 mm
zone of inhibition at 200 µg/disc [9]: 20 mm
MIC [11]: 4 µg/mL (≈ 7.2 µM)
diameter of the inhibition zone (DIZ) [12]: inactive

C=CCSc1nc2ccc(NC/C=C/c3ccccc3)cc2c(=O)n1Cc1ccccc1
diameter of the inhibition zone (DIZ) [1]: inactive
Activity [2]: inactive
MIC [3]: 8 µg/mL (≈ 18.2 µM)
Activity [4]: inactive
IC50 [5]: 5 µM
zone of inhibition at 200 µg/disc [6]: 18 mm
MIC [7]: 8 µg/mL (≈ 18.2 µM)
IC50 [20]: 3000 nM
zone of inhibition at 200 µg/disc [8]: 19 mm
zone of inhibition at 200 µg/disc [9]: 20 mm
MIC [10]: 16 µg/mL (≈ 36.4 µM)
MIC [11]: 4 µg/mL (≈ 9.1 µM)
zone of inhibition at 200 µg/disc [12]: 16 mm

Cc1ccc2nc(S)n(Cc3ccccc3)c(=O)c2c1
zone of inhibition at 200 µg/disc [1]: 15 mm
Activity [2]: inactive
MIC [3]: 4 µg/mL (≈ 14.2 µM)
Activity [4]: inactive
IC50 [5]: 30 µM
zone of inhibition at 200 µg/disc [6]: 17 mm
diameter of the inhibition zone (DIZ) [8]: inactive
zone of inhibition at 200 µg/disc [9]: 18 mm
MIC [11]: 4 µg/mL (≈ 14.2 µM)
zone of inhibition at 200 µg/disc [12]: 14 mm

GENTAMICIN
inhibition zone (IZ) [25]: 21 mm
inhibition zone (IZ) [26]: 19 mm
inhibition zone (IZ) [9]: 19 mm

O=c1c2cc([N+](=O)[O-])ccc2nc(S)n1Cc1ccccc1
diameter of the inhibition zone (DIZ) [1]: inactive
Activity [2]: inactive
Activity [4]: inactive
IC50 [5]: 15 µM
diameter of the inhibition zone (DIZ) [6]: inactive
MIC [7]: 4 µg/mL (≈ 12.8 µM)
zone of inhibition at 200 µg/disc [8]: 20 mm
zone of inhibition at 200 µg/disc [9]: 18 mm
MIC [10]: 16 µg/mL (≈ 51.1 µM)
MIC [11]: 8 µg/mL (≈ 25.5 µM)
zone of inhibition at 200 µg/disc [12]: 16 mm

O=C(/C=C/c1ccccc1)Nc1ccc2nc(SC/C=C/c3ccccc3)n(Cc3ccccc3)c(=O)c2c1
Activity [2]: inactive
GI50 [27]: 400 nM
GI50 [13]: 3000 nM
TGI [13]: 37 µM
GI50 [28]: 600 nM
Activity [4]: inactive
IC50 [5]: 0.9 µM
GI50 [14]: 3.3 µM
TGI [14]: > 100 µM
GI50 [15]: 2200 nM
TGI [15]: 86.9 µM
GI50 [16]: > 100 µM
TGI [16]: > 100 µM
GI50 [17]: > 100 µM
TGI [17]: > 100 µM
GI50 [19]: 2200 nM
TGI [19]: 76.4 µM
IC50 [20]: 500 nM
GI50 [21]: 2500 nM
TGI [21]: 68.6 µM
GI50 [22]: 2600 nM
TGI [22]: 68 µM
GI50 [23]: 1.9 µM
TGI [23]: > 100 µM

C=CCSc1nc2ccc(NC(=O)/C=C/c3ccccc3)cc2c(=O)n1Cc1ccccc1
diameter of the inhibition zone (DIZ) [1]: inactive
Activity [2]: inactive
MIC [3]: 8 µg/mL (≈ 17.6 µM)
Activity [4]: inactive
IC50 [5]: 0.7 µM
zone of inhibition at 200 µg/disc [6]: 18 mm
MIC [7]: 8 µg/mL (≈ 17.6 µM)
IC50 [20]: 500 nM
zone of inhibition at 200 µg/disc [8]: 16 mm
zone of inhibition at 200 µg/disc [9]: 18 mm
MIC [10]: 8 µg/mL (≈ 17.6 µM)
MIC [11]: 8 µg/mL (≈ 17.6 µM)
diameter of the inhibition zone (DIZ) [12]: 18 mm

CC(=O)NS(=O)(=O)c1ccc(N)cc1 [SULFACETAMIDE]
zone of inhibition at 100 µg/disc ([25]; read-out: DIZ): 28 mm
zone of inhibition at 100 µg/disc ([26]; read-out: DIZ): 25 mm
IC50 [5]: 22 µM
MIC [7]: 1 µg/mL (≈ 4.67 µM)
IC50 [20]: 18000 nM
zone of inhibition at 200 µg/disc [9]: 25 mm
MIC [11]: 2 µg/mL (≈ 9.34 µM)

O=c1[nH]cc(F)c(=O)[nH]1 [FLUOROURACIL]
GI50 [13]: 72100 nM
TGI [13]: > 100 µM
GI50 [14]: 61.4 µM
TGI [14]: > 100 µM
GI50 [15]: 70600 nM
TGI [15]: > 100 µM
GI50 [16]: 22.7 µM
TGI [16]: > 100 µM
GI50 [17]: 15.1 µM
TGI [17]: > 100 µM
GI50 [19]: > 100000 nM
TGI [19]: > 100 µM
GI50 [21]: 76400 nM
TGI [21]: > 100 µM
GI50 [22]: 45600 nM
TGI [22]: > 100 µM
GI50 [23]: 8.4 µM
TGI [23]: > 100 µM
